For one experiment, the system named is HL-60. The experiment is described as follows: Cytotoxicity against human HL60 cells after 72 hrs by CCK8 method. Format: functional, cell-based. For orientation: Tetrazolium dyes change colour on reduction, which living cells bring about.
In the next experiment the test system is Liver. Kind of experiment: Antioxidant activity in Sprague-Dawley rat liver assessed as lipid peroxidation by thiobarbituric acid assay. It counts as functional, tissue-based.
The subject of a further experiment is Kidney. The experiment is described as follows: Antioxidant activity in Sprague-Dawley rat kidney assessed as lipid peroxidation by thiobarbituric acid assay. Format: functional, tissue-based.
In the next experiment the test system is RPMI-8226. Kind of experiment: Cytotoxicity against human RPMI8226 cells after 72 hrs by CCK8 method. It counts as functional, cell-based.
The next experiment concerns A549. The experiment is described as follows: Cytotoxicity against human A549 cells after 48 hrs by MTT assay. Format: functional, cell-based.
Where [1] appears, read: Rattus norvegicus, Sprague-Dawley, Liver.
Setting [2] is: Rattus norvegicus, Sprague-Dawley, Kidney.

IC50 data for ten compounds are collected here from ChEMBL document CHEMBL1157024, “First synthesis and biological evaluation of novel spin-labeled derivatives of deoxypodophyllotoxin” (Eur J Med Chem, 2010).

Regarding `COc1cc([C@@H]2c3cc4c(cc3C[C@H]3COC(=O)[C@@H]32)OCO4)cc(OC)c1OC(=O)CNC(=O)OC1CC(C)(C)N([O])C(C)(C)C1`, the IC50 (usually the point on the concentration scale where inhibition reaches its midpoint) is 8.7 nM in the experiment with HL-60 (hl-60); 14400 nM in the experiment on Liver; 13700 nM in the experiment on Kidney; 73 nM in the experiment on RPMI-8226 (rpmi-8226); 620 nM in the experiment on A549 (a549).

For `COc1cc([C@@H]2c3cc4c(cc3C[C@H]3COC(=O)[C@@H]32)OCO4)cc(OC)c1OC(=O)[C@H](C)NC(=O)OC1CC(C)(C)N([O])C(C)(C)C1`, the IC50 in the experiment with HL-60 (hl-60) came out at 12 nM; with Liver, 15300 nM; with Kidney, 15800 nM; with RPMI-8226 (rpmi-8226), 44 nM; in the experiment with A549 (a549), 670 nM.

As for `COc1cc([C@@H]2c3cc4c(cc3C[C@H]3COC(=O)[C@@H]32)OCO4)cc(OC)c1OC(=O)[C@@H](NC(=O)OC1CC(C)(C)N([O])C(C)(C)C1)C(C)C`, the IC50 with HL-60 (hl-60) came out at 24 nM; in the experiment with Liver, 19300 nM; in the experiment on Kidney it was 20300 nM; in the experiment on RPMI-8226 (rpmi-8226), 160 nM; in the experiment on A549 (a549), 550 nM.

`COc1cc([C@@H]2c3cc4c(cc3C[C@H]3COC(=O)[C@@H]32)OCO4)cc(OC)c1OC(=O)[C@H](CC(C)C)NC(=O)OC1CC(C)(C)N([O])C(C)(C)C1`: the IC50 stood at 85 nM with HL-60 (hl-60); 18000 nM in the experiment on Liver; 12100 nM in the experiment with Kidney; 110 nM in the experiment on RPMI-8226 (rpmi-8226); 770 nM in the experiment with A549 (a549).

As for `CC[C@H](C)[C@H](NC(=O)OC1CC(C)(C)N([O])C(C)(C)C1)C(=O)Oc1c(OC)cc([C@@H]2c3cc4c(cc3C[C@H]3COC(=O)[C@@H]32)OCO4)cc1OC`, the IC50 in the experiment on HL-60 (hl-60) turned out to be 36 nM; with Liver it was 13200 nM; with Kidney, 6890 nM; in the experiment on RPMI-8226 (rpmi-8226), 58 nM; in the experiment with A549 (a549), 830 nM.

For `COc1cc([C@@H]2c3cc4c(cc3C[C@H]3COC(=O)[C@@H]32)OCO4)cc(OC)c1OC(=O)[C@@H]1CCCN1C(=O)OC1CC(C)(C)N([O])C(C)(C)C1`, the IC50 in the experiment with HL-60 (hl-60) was 140 nM; in the experiment with Liver, 9700 nM; with Kidney, 14600 nM; in the experiment on RPMI-8226 (rpmi-8226) it was 130 nM; in the experiment on A549 (a549), 600 nM.

On to `COc1cc([C@@H]2c3cc4c(cc3C[C@H]3COC(=O)[C@@H]32)OCO4)cc(OC)c1OC(=O)[C@H](Cc1ccccc1)NC(=O)OC1CC(C)(C)N([O])C(C)(C)C1`, for which the concentration for half-maximal inhibition (IC50) is 18 nM in the experiment with HL-60 (hl-60); 10400 nM in the experiment with Liver; 15000 nM with Kidney; 31 nM with RPMI-8226 (rpmi-8226); 500 nM with A549 (a549).

As for `COc1cc([C@@H]2c3cc4c(cc3C[C@H]3COC(=O)[C@@H]32)OCO4)cc(OC)c1OC(=O)[C@H](Cc1ccc(O)cc1)NC(=O)OC1CC(C)(C)N([O])C(C)(C)C1`, the IC50 in the experiment with HL-60 (hl-60) turned out to be 32 nM; with Liver, 15200 nM; in the experiment on Kidney, 16300 nM; with RPMI-8226 (rpmi-8226), 43 nM; in the experiment on A549 (a549), 270 nM.

For `COc1cc([C@@H]2c3cc4c(cc3C[C@H]3COC(=O)[C@@H]32)OCO4)cc(OC)c1O` [4'-DEMETHYLDEOXYPODOPHYLLOTOXIN], the IC50 in the experiment with HL-60 (Homo sapiens, HL-60, 72 h) is 110 nM; in the experiment on Liver (setting [1]) it was 33800 nM; with Kidney (setting [2]), 23000 nM; in the experiment on RPMI-8226 (Homo sapiens, RPMI-8226, 72 h), 230 nM; in the experiment on A549 (Homo sapiens, A549, 48 h), 800 nM.

On to `COc1cc([C@@H]2c3cc4c(cc3[C@@H](O[C@@H]3O[C@@H]5CO[C@@H](C)O[C@H]5[C@H](O)[C@H]3O)[C@H]3COC(=O)[C@H]23)OCO4)cc(OC)c1O` [ETOPOSIDE], for which the IC50 with HL-60 (Homo sapiens, HL-60, 72 h) is 180 nM; with Liver (setting [1]) it was 46400 nM; with Kidney (setting [2]) it was 64600 nM; in the experiment on RPMI-8226 (Homo sapiens, RPMI-8226, 72 h) it was 700 nM; in the experiment on A549 (Homo sapiens, A549, 48 h), 830 nM.
